# Measurements from US8088769B2, “Cyanopyrimidinones” (Boehringer Ingelheim International GmbH, priority 2004, dated 2012).
# Assays:
# PDE4B = PDE4B (Homo sapiens, UniProt Q07343); assay: PDE inhibition, recombinant PDE4B (SPA); assay type: biochemical; conditions: human isoenzyme
# Excerpt: (§1) Recombinant PDE1C (GenBank/EMBL Accession Number: NM_005020, Loughney et al. J. Biol. Chem. 1996 271, 796-806), PDE2A (GenBank/EMBL Accession Number: NM_002599, Rosman et al. Gene 1997 191, 89-95), PDE3B (GenBank/EMBL Accession Number: NM_000922, Miki et al. Genomics 1996, 36, 476-485), PDE4B (GenBank/EMBL Accession Number: NM_002600, Obernolte et al. Gene. 1993, 129, 239-247), PDE5A (GenBank/EMBL Accession Number: NM_001083, Loughney et al. Gene 1998, 216, 139-147), PDE7B (GenBank/EMBL Accession Number: NM_018945, Hetman et al. Proc. Natl. Acad. Sci. U.S.A. 2000, 97, 472-476), PDE8A (GenBank/EMBL Accession Number: AF—056490, Fisher et al. Biochem. Biophys. Res. Commun. 1998, 246, 570-577), PDE9A (Fisher et al., J. Biol. Chem., 1998, 273 (25): 15559-15564), PDE10A (GenBank/EMBL Accession Number: NM_06661, Fujishige et al. J Biol Chem. 1999, 274, 18438-45), PDE11A (GenBank/EMBL Accession Number: NM_016953, Fawcett et al. Proc. Natl. Acad. Sci. 2000, 97, 3702-3707) were expressed in Sf9 cells with the aid of the pFASTBAC baculovirus expression system (GibcoBRL).
# (§2) The test substances are dissolved in 100% DMSO and serially diluted to determine their in vitro effect on PDE9A. Typically, serial dilutions from 200 μM to 1.6 μM are prepared (resulting final concentrations in the assay: 4 μM to 0.032 μM). 2 μl portions of the diluted substance solutions are introduced into the wells of microtitre plates (Isoplate; Wallac Inc., Atlanta, Ga.). Then 50 μl of a dilution of the PDE9A preparation described above are added. […] The plates are then measured for 30 s per well in a Microbeta scintillation counter (Wallac Inc., Atlanta, Ga.). IC50 values are determined from the graphical plot of the substance concentration versus the percentage inhibition.
# (§3) The in vitro effect of test substances on recombinant PDE3B, PDE4B, PDE7B, PDE8A, PDE10A and PDE11A is determined by the assay protocol described above for PDE9A with the following adaptations: the substrate used is [5′,8-^3H]adenosine 3′,5′-cyclic phosphate (1 μCi/μl; Amersham Pharmacia Biotech., Piscataway, N.J.). […]
# PDE10A = target: T1, PDE10A (Homo sapiens, UniProt Q9Y233); assay: PDE inhibition, recombinant PDE10A (SPA); assay type: biochemical; conditions: human isoenzyme
# T1 construct: made in house; host or cells: Sf9 (baculovirus, pFASTBAC)
# Excerpt: as §1, §2, §3
# PDE7B = target: T2, PDE7B (Homo sapiens, UniProt Q9NP56); assay: PDE inhibition, recombinant PDE7B (SPA); assay type: biochemical; conditions: human isoenzyme
# T2 construct: made in house; host or cells: Sf9 (baculovirus, pFASTBAC)
# Excerpt: as §1, §2, §3
# PDE2A = target: T3, PDE2A (Homo sapiens, UniProt O00408); assay: PDE inhibition, recombinant PDE2A (SPA); assay type: biochemical; conditions: human isoenzyme
# T3 construct: made in house; host or cells: Sf9 (baculovirus, pFASTBAC)
# Excerpt: as §1, §2, §3
# PDE1C = target: T4, PDE1C (Homo sapiens, UniProt Q14123); assay: PDE inhibition, recombinant PDE1C (SPA); assay type: biochemical; conditions: human isoenzyme
# T4 construct: made in house; host or cells: Sf9 (baculovirus, pFASTBAC)
# Excerpt: as §1, §2, §3
# PDE3B = target: T5, PDE3B (Homo sapiens, UniProt Q13370); assay: PDE inhibition, recombinant PDE3B (SPA); assay type: biochemical; conditions: human isoenzyme
# T5 construct: made in house; host or cells: Sf9 (baculovirus, pFASTBAC)
# Excerpt: as §1, §2, §3
# PDE11A = target: T6, PDE11A (Homo sapiens, UniProt Q9HCR9); assay: PDE inhibition, recombinant PDE11A (SPA); assay type: biochemical; conditions: human isoenzyme, read-out: IC50 PDE11
# T6 construct: made in house; host or cells: Sf9 (baculovirus, pFASTBAC)
# Excerpt: as §1, §2, §3
# PDE8A = target: T7, PDE8A (Homo sapiens, UniProt O60658); assay: PDE inhibition, recombinant PDE8A (SPA); assay type: biochemical; conditions: human isoenzyme
# T7 construct: made in house; host or cells: Sf9 (baculovirus, pFASTBAC)
# Excerpt: Recombinant PDE1C (GenBank/EMBL Accession Number: NM_005020, Loughney et al. J. Biol. Chem. 1996 271, 796-806), PDE2A (GenBank/EMBL Accession Number: NM_002599, Rosman et al. Gene 1997 191, 89-95), PDE3B (GenBank/EMBL Accession Number: NM_000922, Miki et al. Genomics 1996, 36, 476-485), PDE4B (GenBank/EMBL Accession Number: NM_002600, Obernolte et al. Gene. 1993, 129, 239-247), PDE5A (GenBank/EMBL Accession Number: NM_001083, Loughney et al. Gene 1998, 216, 139-147), PDE7B (GenBank/EMBL Accession Number: NM_018945, Hetman et al. Proc. Natl. Acad. Sci. U.S.A. 2000, 97, 472-476), PDE8A (GenBank/EMBL Accession Number: AF—056490, Fisher et al. Biochem. Biophys. Res. Commun. […]
# The test substances are dissolved in 100% DMSO and serially diluted to determine their in vitro effect on PDE9A. […] The plates are then measured for 30 s per well in a Microbeta scintillation counter (Wallac Inc., Atlanta, Ga.). IC50 values are determined from the graphical plot of the substance concentration versus the percentage inhibition.
# as §3
# PDE9A [1] = target: T8, PDE9A (Homo sapiens, UniProt O76083); assay: PDE inhibition, recombinant PDE9A (SPA); assay type: biochemical; design: made in house; host or cells: Sf9 (baculovirus, pFASTBAC); conditions: human isoenzyme
# Method: The dilution of the PDE9A preparation is chosen so that less than 70% of the substrate is converted during the subsequent incubation (typical dilution: 1:10 000; dilution buffer: 50 mM Tris/HCl pH 7.5, 8.3 mM MgCl2, 1.7 mM EDTA, 0.2% BSA). […] The plates are then measured for 30 s per well in a Microbeta scintillation counter (Wallac Inc., Atlanta, Ga.). IC50 values are determined from the graphical plot of the substance concentration versus the percentage inhibition.
# PDE9A [2] = target: T8, PDE9A; conditions: concentrations of up to 100 μM; cited from earlier work
# Murine PDE9A = target: T9, Murine PDE9A (Mus musculus, UniProt O70628); conditions: concentrations below 200 μM; cited from earlier work
# T9 sequence (O70628 1-534): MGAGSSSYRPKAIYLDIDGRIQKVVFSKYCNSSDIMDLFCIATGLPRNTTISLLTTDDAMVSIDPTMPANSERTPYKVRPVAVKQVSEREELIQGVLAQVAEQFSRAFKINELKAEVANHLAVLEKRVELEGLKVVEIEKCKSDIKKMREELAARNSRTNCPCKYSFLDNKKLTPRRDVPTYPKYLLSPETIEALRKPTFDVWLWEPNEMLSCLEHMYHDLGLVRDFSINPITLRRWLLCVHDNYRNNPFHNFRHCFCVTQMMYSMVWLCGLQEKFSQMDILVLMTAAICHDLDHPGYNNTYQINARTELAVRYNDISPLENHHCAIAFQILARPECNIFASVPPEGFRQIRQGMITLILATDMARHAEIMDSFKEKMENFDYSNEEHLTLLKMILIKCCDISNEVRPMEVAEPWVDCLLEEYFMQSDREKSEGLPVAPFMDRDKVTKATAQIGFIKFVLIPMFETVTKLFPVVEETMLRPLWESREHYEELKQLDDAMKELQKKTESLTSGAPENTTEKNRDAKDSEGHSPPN
# T5 sequence (Q13370 whole entry): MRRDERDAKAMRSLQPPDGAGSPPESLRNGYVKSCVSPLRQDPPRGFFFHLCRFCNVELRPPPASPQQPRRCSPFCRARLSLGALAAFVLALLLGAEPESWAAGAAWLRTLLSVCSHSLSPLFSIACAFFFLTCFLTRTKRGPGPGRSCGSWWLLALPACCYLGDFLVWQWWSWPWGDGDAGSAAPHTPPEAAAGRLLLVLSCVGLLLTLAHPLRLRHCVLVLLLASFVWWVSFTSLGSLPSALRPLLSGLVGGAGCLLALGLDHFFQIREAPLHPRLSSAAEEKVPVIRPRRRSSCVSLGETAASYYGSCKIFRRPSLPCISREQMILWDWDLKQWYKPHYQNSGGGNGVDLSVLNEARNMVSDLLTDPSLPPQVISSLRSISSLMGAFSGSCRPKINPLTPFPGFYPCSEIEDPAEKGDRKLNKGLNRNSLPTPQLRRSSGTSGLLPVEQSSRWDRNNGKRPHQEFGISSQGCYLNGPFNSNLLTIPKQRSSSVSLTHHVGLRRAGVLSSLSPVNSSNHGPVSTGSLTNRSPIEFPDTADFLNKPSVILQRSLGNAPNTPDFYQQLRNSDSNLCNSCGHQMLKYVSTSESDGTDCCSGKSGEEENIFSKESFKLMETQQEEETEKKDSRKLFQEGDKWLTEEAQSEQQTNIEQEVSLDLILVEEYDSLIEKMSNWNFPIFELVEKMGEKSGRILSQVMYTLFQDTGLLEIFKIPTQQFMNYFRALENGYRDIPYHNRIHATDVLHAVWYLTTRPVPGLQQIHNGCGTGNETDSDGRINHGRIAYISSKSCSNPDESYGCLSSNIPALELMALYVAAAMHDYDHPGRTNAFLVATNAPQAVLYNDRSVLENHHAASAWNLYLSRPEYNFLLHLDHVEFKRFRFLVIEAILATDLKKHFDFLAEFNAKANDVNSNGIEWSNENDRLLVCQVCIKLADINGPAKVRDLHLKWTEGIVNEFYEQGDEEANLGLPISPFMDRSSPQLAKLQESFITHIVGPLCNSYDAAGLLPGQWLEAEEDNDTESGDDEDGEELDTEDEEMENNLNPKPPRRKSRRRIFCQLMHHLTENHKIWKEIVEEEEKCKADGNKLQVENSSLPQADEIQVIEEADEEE
# T1 sequence (Q9Y233 1-779 isoform Q9Y233-1): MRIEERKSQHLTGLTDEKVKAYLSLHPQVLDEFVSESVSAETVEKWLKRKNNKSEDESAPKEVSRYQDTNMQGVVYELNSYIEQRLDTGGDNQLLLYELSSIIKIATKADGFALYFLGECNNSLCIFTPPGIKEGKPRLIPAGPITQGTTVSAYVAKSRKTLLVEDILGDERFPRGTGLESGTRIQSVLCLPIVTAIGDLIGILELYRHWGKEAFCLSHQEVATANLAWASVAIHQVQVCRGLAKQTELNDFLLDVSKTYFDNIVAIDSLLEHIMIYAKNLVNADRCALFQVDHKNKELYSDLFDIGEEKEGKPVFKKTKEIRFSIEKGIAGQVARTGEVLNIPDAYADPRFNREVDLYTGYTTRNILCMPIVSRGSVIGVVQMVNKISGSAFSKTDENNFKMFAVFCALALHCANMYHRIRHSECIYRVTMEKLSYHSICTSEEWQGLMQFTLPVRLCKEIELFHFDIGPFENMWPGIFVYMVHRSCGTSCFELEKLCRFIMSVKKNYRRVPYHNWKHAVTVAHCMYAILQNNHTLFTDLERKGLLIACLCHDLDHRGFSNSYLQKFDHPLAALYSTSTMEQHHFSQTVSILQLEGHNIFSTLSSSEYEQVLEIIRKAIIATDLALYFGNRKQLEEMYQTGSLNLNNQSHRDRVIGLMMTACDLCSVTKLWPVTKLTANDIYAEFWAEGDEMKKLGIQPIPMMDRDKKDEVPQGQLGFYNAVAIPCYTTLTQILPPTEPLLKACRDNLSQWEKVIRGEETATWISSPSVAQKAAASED
# T3 sequence (O00408 whole entry): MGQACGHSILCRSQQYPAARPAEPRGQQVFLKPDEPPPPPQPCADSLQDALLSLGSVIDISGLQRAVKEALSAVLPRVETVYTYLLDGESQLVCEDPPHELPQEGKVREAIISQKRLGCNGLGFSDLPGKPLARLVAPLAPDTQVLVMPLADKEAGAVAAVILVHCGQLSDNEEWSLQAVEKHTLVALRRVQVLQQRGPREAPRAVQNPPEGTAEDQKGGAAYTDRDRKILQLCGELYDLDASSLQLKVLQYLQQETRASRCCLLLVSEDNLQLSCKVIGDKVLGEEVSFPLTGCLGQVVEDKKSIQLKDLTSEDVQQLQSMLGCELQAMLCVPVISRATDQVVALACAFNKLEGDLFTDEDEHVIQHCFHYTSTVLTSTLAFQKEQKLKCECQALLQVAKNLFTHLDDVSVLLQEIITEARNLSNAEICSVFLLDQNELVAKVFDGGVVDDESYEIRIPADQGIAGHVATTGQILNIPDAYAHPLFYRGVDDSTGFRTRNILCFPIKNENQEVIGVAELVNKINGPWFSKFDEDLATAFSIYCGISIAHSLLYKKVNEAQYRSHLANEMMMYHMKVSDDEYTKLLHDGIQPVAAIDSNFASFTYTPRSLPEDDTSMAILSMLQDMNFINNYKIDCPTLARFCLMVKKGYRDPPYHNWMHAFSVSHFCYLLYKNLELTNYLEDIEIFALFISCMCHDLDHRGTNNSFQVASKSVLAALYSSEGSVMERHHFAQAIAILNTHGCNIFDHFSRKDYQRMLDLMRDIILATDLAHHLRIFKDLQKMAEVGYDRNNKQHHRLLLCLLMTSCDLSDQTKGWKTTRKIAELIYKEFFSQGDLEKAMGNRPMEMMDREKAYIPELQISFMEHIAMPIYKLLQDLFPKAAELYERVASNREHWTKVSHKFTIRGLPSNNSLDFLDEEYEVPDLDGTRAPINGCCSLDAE
# T8 sequence (O76083 whole entry): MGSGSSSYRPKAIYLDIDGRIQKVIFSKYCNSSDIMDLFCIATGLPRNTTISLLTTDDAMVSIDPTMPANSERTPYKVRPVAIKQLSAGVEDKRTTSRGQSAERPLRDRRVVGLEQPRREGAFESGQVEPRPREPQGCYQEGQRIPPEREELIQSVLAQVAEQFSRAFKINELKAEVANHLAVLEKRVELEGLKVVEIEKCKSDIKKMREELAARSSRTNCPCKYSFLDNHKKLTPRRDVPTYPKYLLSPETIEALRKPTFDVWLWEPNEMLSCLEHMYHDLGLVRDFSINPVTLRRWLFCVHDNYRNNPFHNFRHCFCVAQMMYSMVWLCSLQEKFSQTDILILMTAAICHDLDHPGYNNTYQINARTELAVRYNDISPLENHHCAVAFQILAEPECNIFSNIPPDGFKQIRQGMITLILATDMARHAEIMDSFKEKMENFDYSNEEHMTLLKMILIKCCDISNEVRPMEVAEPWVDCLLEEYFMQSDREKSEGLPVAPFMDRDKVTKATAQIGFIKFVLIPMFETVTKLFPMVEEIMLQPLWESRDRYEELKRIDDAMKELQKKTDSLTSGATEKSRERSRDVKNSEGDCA
# T6 sequence (Q9HCR9 445-933 limits assumed): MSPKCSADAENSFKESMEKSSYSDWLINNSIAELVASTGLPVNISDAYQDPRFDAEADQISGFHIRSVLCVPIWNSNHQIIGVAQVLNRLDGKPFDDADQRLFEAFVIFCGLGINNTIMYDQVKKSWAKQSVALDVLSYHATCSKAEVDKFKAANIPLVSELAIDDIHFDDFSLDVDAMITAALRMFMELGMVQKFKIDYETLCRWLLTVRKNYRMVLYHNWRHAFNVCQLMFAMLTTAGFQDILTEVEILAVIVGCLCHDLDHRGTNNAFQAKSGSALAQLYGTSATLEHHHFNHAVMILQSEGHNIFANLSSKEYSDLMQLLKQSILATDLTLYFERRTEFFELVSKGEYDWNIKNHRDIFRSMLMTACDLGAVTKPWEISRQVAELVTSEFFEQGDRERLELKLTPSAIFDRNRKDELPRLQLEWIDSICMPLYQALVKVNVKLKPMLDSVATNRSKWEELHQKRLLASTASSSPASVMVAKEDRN
# PDE4B, sequence (Q07343 212-736 limits assumed): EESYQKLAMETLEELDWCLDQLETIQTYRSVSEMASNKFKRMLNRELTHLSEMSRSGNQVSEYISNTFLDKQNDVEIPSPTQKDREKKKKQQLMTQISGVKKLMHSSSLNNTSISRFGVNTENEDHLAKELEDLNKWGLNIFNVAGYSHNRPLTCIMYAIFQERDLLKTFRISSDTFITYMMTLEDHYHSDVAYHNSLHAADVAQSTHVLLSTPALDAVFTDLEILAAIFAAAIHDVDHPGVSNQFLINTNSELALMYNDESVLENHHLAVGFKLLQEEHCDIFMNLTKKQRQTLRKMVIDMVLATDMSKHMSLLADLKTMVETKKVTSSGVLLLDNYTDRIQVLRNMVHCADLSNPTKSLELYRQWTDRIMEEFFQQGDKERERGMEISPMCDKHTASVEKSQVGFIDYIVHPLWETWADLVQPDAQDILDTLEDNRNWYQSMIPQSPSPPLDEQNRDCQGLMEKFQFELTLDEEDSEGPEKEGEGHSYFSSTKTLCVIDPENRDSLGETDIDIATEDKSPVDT
# T2 sequence (Q9NP56 whole entry): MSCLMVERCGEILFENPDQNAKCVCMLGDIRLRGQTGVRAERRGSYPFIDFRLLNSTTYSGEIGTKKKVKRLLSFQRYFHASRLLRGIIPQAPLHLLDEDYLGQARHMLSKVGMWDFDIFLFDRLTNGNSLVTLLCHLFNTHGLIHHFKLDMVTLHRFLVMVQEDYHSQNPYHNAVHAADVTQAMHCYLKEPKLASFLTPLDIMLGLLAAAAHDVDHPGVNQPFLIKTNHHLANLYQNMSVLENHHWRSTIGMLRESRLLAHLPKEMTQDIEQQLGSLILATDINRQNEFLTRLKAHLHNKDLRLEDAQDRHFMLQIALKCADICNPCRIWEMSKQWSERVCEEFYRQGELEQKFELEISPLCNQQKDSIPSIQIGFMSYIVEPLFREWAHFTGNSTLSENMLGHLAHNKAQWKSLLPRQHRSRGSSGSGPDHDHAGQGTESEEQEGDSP
SMILES,IC50 (PDE4B) [µM],IC50 (PDE10A) [µM],IC50 (PDE7B) [µM],IC50 (PDE2A) [µM],IC50 (PDE1C) [µM],IC50 (PDE3B) [µM],IC50 (PDE11A) [µM],IC50 (PDE8A) [µM],IC50 (PDE9A [1]) [µM],inhibition on the isolated enzyme (human PDE9A) (PDE9A [2]),inhibition of murine PDE9A (Murine PDE9A)
"COc1ccc(-c2ccccc2Cc2nc(N3CCC(CCO)CC3)c(C#N)c(=O)[nH]2)cn1 [Example 38, 4-[4-(2-Hydroxyethyl)piperidin-1-yl]-2-[2-(6-methoxypyridin-3-yl)benzyl]-6-oxo-1,6-dihydropyrimidine-5-carbonitrile]",> 4,> 4,2.2,> 4,> 4,> 4,> 4,–,–,–,–
COc1ccc(-c2ccccc2Cc2nc(N3CCC[C@H]3CO)c(C#N)c(=O)[nH]2)cn1 [Example 112],> 4,> 4,> 4,> 4,> 4,> 4,> 4,> 4,0.005,–,–
COc1ccc(-c2ccccc2Cc2nc(N3CCCC3)c(C#N)c(=O)[nH]2)cn1 [Example 113],> 4,> 4,> 4,> 4,> 4,> 4,1.5,> 4,0.015,–,–
CC(C)Cn1c(=O)n(C)c(=O)c2[nH]cnc21 [IBMX],–,–,–,–,–,–,–,–,–,no inhibition,not inhibited
CC(=O)Nc1ccc(-c2c[nH]c(=O)cn2)cc1 [SKF94120],–,–,–,–,–,–,–,–,–,no inhibition,–
OCCN(CCO)c1nc(N2CCCCC2)c2nc(N(CCO)CCO)nc(N3CCCCC3)c2n1 [dipyridamole],–,–,–,–,–,–,–,–,–,no inhibition,–
COc1ccc(C2CNC(=O)C2)cc1OC1CCCC1 (stereo not shown) [rolipram],–,–,–,–,–,–,–,–,–,no inhibition,–
CCOC(=O)C1=C[C@]2(CC)CCCN3CCc4c(n1c1ccccc41)[C@@H]32 [vinpocetine],–,–,–,–,–,–,–,–,–,no inhibition,–
